In patent US9777005B2 (Takeda Pharmaceutical Company Limited, priority 2012, dated 2017):
Counter-ions that a name gives are not always drawn.

Target: T1, human M1 receptor (hCHRM1) (Homo sapiens, UniProt P11229)
T1 construct: expressed in transfected cells; host or cells: CHO-K1
T1 sequence (P11229 1-460): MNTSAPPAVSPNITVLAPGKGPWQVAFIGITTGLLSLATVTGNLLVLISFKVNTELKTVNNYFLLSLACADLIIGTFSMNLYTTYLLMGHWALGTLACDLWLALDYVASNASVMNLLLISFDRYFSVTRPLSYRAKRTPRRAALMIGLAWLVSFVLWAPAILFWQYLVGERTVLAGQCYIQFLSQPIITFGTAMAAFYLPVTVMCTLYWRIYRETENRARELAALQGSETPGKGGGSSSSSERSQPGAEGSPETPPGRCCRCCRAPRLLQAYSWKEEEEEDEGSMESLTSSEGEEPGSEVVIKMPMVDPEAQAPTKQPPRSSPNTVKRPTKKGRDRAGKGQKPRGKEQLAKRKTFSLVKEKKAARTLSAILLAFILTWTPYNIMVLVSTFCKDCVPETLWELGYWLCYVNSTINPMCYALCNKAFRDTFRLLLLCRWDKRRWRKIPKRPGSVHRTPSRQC
Assay: Measurement of M1 receptor positive allosteric modulator (M1PAM) activity, calcium fluorescence (FLIPRtetra) in CHO-K1 cells in the presence of acetylcholine at EC20
Format: cell-based
Conditions: in the presence of acetylcholine at EC20 (final 0.6 nM), CHO-K1 cells expressing hCHRM1; for EC50: inflection point of M1PAM activity, read-out: IP value; for activity (%) at 10 μM: test compound 10 μM
Description: Measurement of M1 Receptor Positive Allosteric Modulator (M1PAM) Activity
The activity of a test compound in the presence of acetylcholine at EC20 concentration (final concentration 0.6 nM), which affords an action corresponding to 20% of the maximum activity, was measured as PAM activity. The method is as follows. CHO-K1 cells forcibly expressing a human M1 receptor (hCHRM1) were plated on a 384-well black clear bottom plate (BD Falcon) at 5,000 cells/well, and cultured in an incubator at 37° C., 5% CO2 for 1 day. The medium in the cell plate was removed, and assay buffer A (Recording medium (DOJINDO LABORATORIES), 0.1% BSA (Wako Pure Chemical Industries, Ltd.), 2.5 μg/mL Fluo-4 AM (DOJINDO LABORATORIES), 0.08% Pluronic F127 (DOJINDO LABORATORIES), 1.25 mM probenecid (DOJINDO LABORATORIES)) containing a calcium indicator was added at 30 μL/well. The cells were left standing in the incubator at 37° C., 5% CO2 for 30 min, and further left standing at room temperature for 30 min. A test compound prepared by diluting with assay buffer B (HBSS (Invitrogen), 20 mM HEPES (Invitrogen), 0.1% BSA) containing 2.4 nM acetylcholine was added at 10 μL/well, and the fluorescence was measured by FLIPRtetra (Molecular Devices) for 1 min every 1 second. With the definition that the amount of change in the fluorescence on addition of acetylcholine (final concentration 1 μM) is 100% and that on addition of DMSO instead of a test compound is 0%, the activity (%) of the test compound and the inflection point in the concentration-dependent curve of the test compound were calculated as IP values.

EC50 | activity (%) at 10 μM | activity (%) at 10 μM (hydrochloride) | Structure (SMILES)
48 nM | 106% |  | Cc1nn(C)cc1-c1ccc(CN2Cc3ccnc(O[C@@H]4CCC[C@H]4O)c3C2=O)cc1 (single isomer, unassigned) [Example 255, 2-(4-(1,3-dimethyl-1H-pyrazol-4-yl)benzyl)-4-((trans-2-hydroxycyclopentyl)oxy)-1,2-dihydro-3H-pyrrolo[3,4-c]pyridin-3-one]
4 nM | 101% |  | Cc1nn(C)cc1-c1ccc(CN2Cc3ccnc(O[C@@H]4CCC[C@H]4O)c3C2=O)cc1 (single isomer, unassigned) [Example 256, 2-(4-(1,3-dimethyl-1H-pyrazol-4-yl)benzyl)-4-((trans-2-hydroxycyclopentyl)oxy)-1,2-dihydro-3H-pyrrolo[3,4-c]pyridin-3-one]
5.7 nM |  | 107% | Cc1cc(-c2ccc(CN3Cc4ccnc(O[C@@H]5CCC[C@H]5O)c4C3=O)cc2)ccn1 (single isomer, unassigned) [Example 258, 4-((trans-2-hydroxycyclopentyl)oxy)-2-(4-(2-methylpyridin-4-yl)benzyl)-1,2-dihydro-3H-pyrrolo[3,4-c]pyridin-3-one hydrochloride]
85 nM |  | 109% | Cc1cc(-c2ccc(CN3Cc4ccnc(O[C@@H]5CCC[C@H]5O)c4C3=O)cc2)ccn1 (single isomer, unassigned) [Example 259, 4-((trans-2-hydroxycyclopentyl)oxy)-2-(4-(2-methylpyridin-4-yl)benzyl)-1,2-dihydro-3H-pyrrolo[3,4-c]pyridin-3-one hydrochloride]
39 nM | 103% |  | O=C1c2c(cccc2O[C@@H]2CCOC[C@H]2O)CN1Cc1ccc(Br)cc1 (single isomer, unassigned) [Example 268, 1,5-anhydro-3-O-(2-(4-bromobenzyl)-3-oxo-2,3-dihydro-1H-isoindol-4-yl)-2-deoxy-threo-pentitol]
130 nM | 97% |  | O=C1c2c(cccc2O[C@@H]2COCC[C@H]2O)CN1Cc1ccc(Br)cc1 (single isomer, unassigned) [Example 271, 1,5-anhydro-2-O-(2-(4-bromobenzyl)-3-oxo-2,3-dihydro-1H-isoindol-4-yl)-4-deoxy-threo-pentitol]
12 nM | 102% |  | CCC(CO)Oc1nccc2c1C(=O)N(Cc1ccc(-c3cn(C)nc3C)cc1)C2 (single isomer, unassigned) [Example 274, 2-(4-(1,3-dimethyl-1H-pyrazol-4-yl)benzyl)-4-((l-hydroxybutan-2-yl)oxy)-1,2-dihydro-3H-pyrrolo[3,4-c]pyridin-3-one]
76 nM | 104% |  | CCC(CO)Oc1nccc2c1C(=O)N(Cc1ccc(-c3cn(C)nc3C)cc1)C2 (single isomer, unassigned) [Example 275, 2-(4-(1,3-dimethyl-1H-pyrazol-4-yl)benzyl)-4-((l-hydroxybutan-2-yl)oxy)-1,2-dihydro-3H-pyrrolo[3,4-c]pyridin-3-one]
48 nM | 101% |  | O=C1c2c(cccc2O[C@@H]2CCOC[C@H]2O)CN1Cc1ccc(Cl)cc1 (single isomer, unassigned) [Example 292, 1,5-anhydro-3-O-(2-(4-chlorobenzyl)-3-oxo-2,3-dihydro-1H-isoindol-4-yl)-2-deoxy-threo-pentitol]
150 nM | 100% |  | O=C1c2c(cccc2O[C@@H]2COCC[C@H]2O)CN1Cc1ccc(Cl)cc1 (single isomer, unassigned) [Example 295, 1,5-anhydro-2-O-(2-(4-chlorobenzyl)-3-oxo-2,3-dihydro-1H-isoindol-4-yl)-4-deoxy-threo-pentitol]
18 nM | 91% |  | O=C1c2c(cccc2O[C@@H]2CCOC[C@H]2O)CN1Cc1ccc(F)cc1F (single isomer, unassigned) [Example 299, 1,5-anhydro-2-deoxy-3-O-(2-(2,4-difluorobenzyl)-3-oxo-2,3-dihydro-1H-isoindol-4-yl)-threo-pentitol]
120 nM | 89% |  | O=C1c2c(cccc2O[C@@H]2COCC[C@H]2O)CN1Cc1ccc(F)cc1F (single isomer, unassigned) [Example 301, 1,5-anhydro-2-deoxy-4-O-(2-(2,4-difluorobenzyl)-3-oxo-2,3-dihydro-1H-isoindol-4-yl)-threo-pentitol]
6.6 nM | 101% |  | O=C1c2c(ccnc2O[C@@H]2CCCC[C@H]2O)CN1Cc1c(F)cc(F)cc1F (single isomer, unassigned) [Example 315, 4-((trans-2-hydroxycyclohexyl)oxy)-2-(2,4,6-trifluorobenzyl)-1,2-dihydro-3H-pyrrolo[3,4-c]pyridin-3-one]
26 nM | 99% |  | O=C1c2c(cccc2O[C@@H]2CCOC[C@H]2O)CN1Cc1c(F)cc(F)cc1F (single isomer, unassigned) [Example 318, 1,5-anhydro-2-deoxy-3-O-(3-oxo-2-(2,4,6-trifluorobenzyl)-2,3-dihydro-1H-isoindol-4-yl)-threo-pentitol]
9.1 nM | 104% |  | O=C1c2c(ccnc2O[C@@H]2CCCC[C@H]2O)CN1Cc1cc(F)ccc1F (single isomer, unassigned) [Example 319, 2-(2,5-difluorobenzyl)-4-((trans-2-hydroxycyclohexyl)oxy)-1,2-dihydro-3H-pyrrolo[3,4-c]pyridin-3-one]
32 nM | 104% |  | O=C1c2c(ccnc2O[C@@H]2CCCC[C@H]2O)CN1Cc1cccc(F)c1 (single isomer, unassigned) [Example 321, 2-(3-fluorobenzyl)-4-((trans-2-hydroxycyclohexyl)oxy)-1,2-dihydro-3H-pyrrolo[3,4-c]pyridin-3-one]
20 nM | 102% |  | Cn1cc(-c2ccc(CN3Cc4cccc(OCC5CCCO5)c4C3=O)cc2)cn1 (stereo not shown) [Example 5, 2-(4-(1-methyl-1H-pyrazol-4-yl)benzyl)-7-((tetrahydrofuran-2-yl)methoxy)isoindolin-1-one]
31 nM | 90% |  | Cn1cc(-c2ccc(CN3Cc4cccc(Oc5c(F)cccc5C#N)c4C3=O)cc2)cn1 [Example 6, 3-fluoro-2-((2-(4-(1-methyl-1H-pyrazol-4-yl)benzyl)-3-oxo-2,3-dihydro-1H-isoindol-4-yl)oxy)benzonitrile]
33 nM | 99% |  | Cn1cc(-c2ccc(CN3Cc4cccc(OCCN5CCCC5)c4C3=O)cc2)cn1 [Example 8, 2-(4-(1-methyl-1H-pyrazol-4-yl)benzyl)-7-(2-(pyrrolidin-1-yl)ethoxy)isoindolin-1-one]
34 nM | 93% |  | Cn1cc(-c2ccc(CN3Cc4cccc(Oc5c(Cl)cccc5C#N)c4C3=O)cc2)cn1 [Example 9, 3-chloro-2-((2-(4-(1-methyl-1H-pyrazol-4-yl)benzyl)-3-oxo-2,3-dihydro-1H-isoindol-4-yl)oxy)benzonitrile]
54 nM | 103% |  | Cn1cc(-c2ccc(CN3Cc4cccc(Oc5c(F)cc([N+](=O)[O-])cc5Cl)c4C3=O)cc2)cn1 [Example 10, 7-(2-chloro-6-fluoro-4-nitrophenoxy)-2-(4-(1-methyl-1H-pyrazol-4-yl)benzyl)isoindolin-1-one]

Structure (SMILES) | EC50 | activity (%) at 10 μM | activity (%) at 10 μM (hydrochloride)
CCC(O)COc1nccc2c1C(=O)N(Cc1ccc(-c3cn(C)nc3C)cc1)C2 (single isomer, unassigned) [Example 276, 2-(4-(1,3-dimethyl-1H-pyrazol-4-yl)benzyl)-4-(2-hydroxybutoxy)-1,2-dihydro-3H-pyrrolo[3,4-c]pyridin-3-one] | 3.6 nM | 99% | 
CCC(O)COc1nccc2c1C(=O)N(Cc1ccc(-c3cn(C)nc3C)cc1)C2 (single isomer, unassigned) [Example 277, 2-(4-(1,3-dimethyl-1H-pyrazol-4-yl)benzyl)-4-(2-hydroxybutoxy)-1,2-dihydro-3H-pyrrolo[3,4-c]pyridin-3-one] | 42 nM | 96% | 
